This is an account of results in EP4711369A1, “1H-[1,2,3]TRIAZOLO[4,5-H]QUINAZOLINE COMPOUNDS AS PROTEIN KINASE INHIBITORS” (Chengdu Cynogen Bio-Pharmaceutical Technology Co., Ltd., priority 2023, dated 2024).

The target in one assay is CDK2/cyclin E (Homo sapiens, UniProt P24941). Put plainly: Assay of kinase activity (ADP-Glo). It counts as biochemical. As to conditions: kinase inhibitory activity, read-out: CDK2/E1 IC50. The gist of the method: (§1)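 Kinase preincubated 10 min with compound in 50 mM Hepes, 10 mM MgCl2, 0.01% Brij35, 2 mM DTT, then substrate/ATP added for 60 min at 25 °C. ADP formed measured by ADP-Glo luminescence; IC50 by nonlinear concentration-response fitting.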
(In general: ADP-Glo turns the ADP formed in a reaction into a luminescent signal.)

A further assay has as its target CDK4/cyclin D1 (Homo sapiens, UniProt P11802). Put plainly: Assay of kinase activity (ADP-Glo). It counts as biochemical. Particulars: kinase inhibitory activity. In short, it runs like this:
as §1

A further assay deals with CDK6/cyclin D3 (Homo sapiens, UniProt Q00534). The assay is described as follows: Assay of kinase activity (ADP-Glo). Particulars: kinase inhibitory activity. Format: biochemical. In short, it runs like this:
(§2)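 ADP production quantified by luminescence after 60 min kinase reaction at 25 °C, started with substrate/ATP following 10 min enzyme-compound preincubation. Buffer: 50 mM Hepes, 10 mM MgCl2, 0.01% Brij35, 2 mM DTT. IC50 obtained by nonlinear curve fitting of inhibition data.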

The next assay has as its target CDK9/cyclin T1 (Homo sapiens, UniProt P50750). Put plainly: Assay of kinase activity (ADP-Glo). It counts as biochemical. As to conditions: kinase inhibitory activity. In short, it runs like this: as §2
Assay [1] relates to human acute myeloid leukemia MV-4-11 cells. Put plainly: Assay of cell proliferation (CellTiter-Glo). As to conditions: MV4-11, 144 h, 6 days, read-out: MV-4-11 IC50 of cell proliferation inhibitory activity. Format: cell-based. The gist of the method: (§3)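 Cells seeded per line at growth-adapted densities, treated 6 days at 37 °C/5% CO2 with nine 3-fold dilutions (10 µM to 0.1 nM final, 0.5% DMSO). Viability by CellTiter-Glo luminescence; IC50 from four-parameter fit.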

In assay [2] the test system is human breast cancer HCC1806 cells. Put plainly: Assay of cell proliferation (CellTiter-Glo). Format: cell-based. As to conditions: Homo sapiens, 144 h, 6 days, read-out: HCC1806 IC50 of cell proliferation inhibitory activity. The gist of the method: as §3
A general note: ATP-based viability assays read luminescence as a measure of living cells.

For assay [3], the system named is human breast cancer MCF-7 cells. Put plainly: Assay of cell proliferation (CellTiter-Glo). It counts as cell-based. As to conditions: 144 h, MCF7 cells, 6 days, read-out: MCF7 IC50 of cell proliferation inhibitory activity. In short, it runs like this: as §3
The subject of assay [4] is human colon cancer HCT-116 cells. The assay is described as follows: Assay of cell proliferation (CellTiter-Glo). It counts as cell-based. As to conditions: 144 h, 6 days, read-out: HCT-116 IC50 of cell proliferation inhibitory activity. In short, it runs like this: as §3
The subject of assay [5] is human gastric cancer MKN1 cells. The assay is described as follows: Assay of cell proliferation (CellTiter-Glo). Format: cell-based. As to conditions: Homo sapiens, MKN-1, 144 h; MNK1, 6 days; read-out: MKN1 IC50 of cell proliferation inhibitory activity. In short, it runs like this: as §3
Assay [6] deals with Human ovarian cancer OVCAR3 cells. The assay is described as follows: Assay of cell proliferation (CellTiter-Glo). Format: cell-based. Particulars: Homo sapiens, OVCAR-3, 144 h, 6 days, read-out: OVCAR3 IC50 of cell proliferation inhibitory activity. In short, it runs like this: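 OVCAR3 cells, 2000/well in RPMI 1640 with 20% FBS, treated with nine 3-fold dilutions from 10 µM to 0.1 nM (0.5% DMSO) for 6 days at 37 °C. Viability by CellTiter-Glo luminescence; IC50 by four-parameter fit.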

The structures appear in SMILES notation.

Chain of CDK6/cyclin D3 (Q00534 whole entry, species assumed): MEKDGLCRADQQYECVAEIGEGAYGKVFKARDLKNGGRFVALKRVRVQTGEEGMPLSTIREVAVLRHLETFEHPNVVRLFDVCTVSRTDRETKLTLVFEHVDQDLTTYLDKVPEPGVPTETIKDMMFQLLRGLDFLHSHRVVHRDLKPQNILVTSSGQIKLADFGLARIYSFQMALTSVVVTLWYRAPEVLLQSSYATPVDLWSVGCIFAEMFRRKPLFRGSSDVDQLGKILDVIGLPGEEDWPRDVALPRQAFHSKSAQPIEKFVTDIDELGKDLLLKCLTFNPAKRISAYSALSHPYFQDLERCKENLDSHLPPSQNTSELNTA
Chain of CDK6/cyclin D3 (P30281 whole entry partner, species assumed): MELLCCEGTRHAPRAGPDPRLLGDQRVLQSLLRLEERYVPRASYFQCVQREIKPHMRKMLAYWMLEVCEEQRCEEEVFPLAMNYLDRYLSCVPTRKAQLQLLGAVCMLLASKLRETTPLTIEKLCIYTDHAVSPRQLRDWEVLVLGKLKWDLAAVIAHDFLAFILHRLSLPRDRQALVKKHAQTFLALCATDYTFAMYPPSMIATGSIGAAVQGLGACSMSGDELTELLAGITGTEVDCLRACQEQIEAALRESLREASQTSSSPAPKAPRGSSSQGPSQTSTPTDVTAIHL
Chain of CDK4/cyclin D1 (P11802 whole entry, species assumed): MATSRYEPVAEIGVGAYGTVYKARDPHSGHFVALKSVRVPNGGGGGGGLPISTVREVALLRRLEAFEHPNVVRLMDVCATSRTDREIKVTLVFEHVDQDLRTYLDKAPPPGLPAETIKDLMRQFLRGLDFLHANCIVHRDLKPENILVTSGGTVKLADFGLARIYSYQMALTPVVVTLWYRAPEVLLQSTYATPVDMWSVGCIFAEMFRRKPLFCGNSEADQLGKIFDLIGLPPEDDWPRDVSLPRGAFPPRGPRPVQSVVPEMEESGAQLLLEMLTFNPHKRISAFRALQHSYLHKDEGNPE
Chain of CDK4/cyclin D1 (P24385 whole entry partner, species assumed): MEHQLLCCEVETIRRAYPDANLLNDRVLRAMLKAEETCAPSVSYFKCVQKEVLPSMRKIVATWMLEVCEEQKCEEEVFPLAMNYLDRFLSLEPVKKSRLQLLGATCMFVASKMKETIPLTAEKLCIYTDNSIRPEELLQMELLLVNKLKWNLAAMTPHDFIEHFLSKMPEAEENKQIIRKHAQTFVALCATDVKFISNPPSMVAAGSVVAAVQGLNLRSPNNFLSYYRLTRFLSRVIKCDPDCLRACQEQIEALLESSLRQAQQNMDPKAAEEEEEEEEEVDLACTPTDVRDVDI
Chain of CDK9/cyclin T1 (P50750 whole entry, species assumed): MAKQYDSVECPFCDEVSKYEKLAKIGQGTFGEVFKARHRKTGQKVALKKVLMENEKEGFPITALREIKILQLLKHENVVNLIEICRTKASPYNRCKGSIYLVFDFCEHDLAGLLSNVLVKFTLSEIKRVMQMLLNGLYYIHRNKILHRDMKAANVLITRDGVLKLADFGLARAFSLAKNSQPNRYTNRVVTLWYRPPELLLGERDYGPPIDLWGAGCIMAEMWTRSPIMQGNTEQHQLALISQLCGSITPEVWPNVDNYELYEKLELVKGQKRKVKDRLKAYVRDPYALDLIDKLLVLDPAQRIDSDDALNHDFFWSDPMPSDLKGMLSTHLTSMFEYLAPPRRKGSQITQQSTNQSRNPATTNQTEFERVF
Chain of CDK9/cyclin T1 (O60563 whole entry partner, species assumed): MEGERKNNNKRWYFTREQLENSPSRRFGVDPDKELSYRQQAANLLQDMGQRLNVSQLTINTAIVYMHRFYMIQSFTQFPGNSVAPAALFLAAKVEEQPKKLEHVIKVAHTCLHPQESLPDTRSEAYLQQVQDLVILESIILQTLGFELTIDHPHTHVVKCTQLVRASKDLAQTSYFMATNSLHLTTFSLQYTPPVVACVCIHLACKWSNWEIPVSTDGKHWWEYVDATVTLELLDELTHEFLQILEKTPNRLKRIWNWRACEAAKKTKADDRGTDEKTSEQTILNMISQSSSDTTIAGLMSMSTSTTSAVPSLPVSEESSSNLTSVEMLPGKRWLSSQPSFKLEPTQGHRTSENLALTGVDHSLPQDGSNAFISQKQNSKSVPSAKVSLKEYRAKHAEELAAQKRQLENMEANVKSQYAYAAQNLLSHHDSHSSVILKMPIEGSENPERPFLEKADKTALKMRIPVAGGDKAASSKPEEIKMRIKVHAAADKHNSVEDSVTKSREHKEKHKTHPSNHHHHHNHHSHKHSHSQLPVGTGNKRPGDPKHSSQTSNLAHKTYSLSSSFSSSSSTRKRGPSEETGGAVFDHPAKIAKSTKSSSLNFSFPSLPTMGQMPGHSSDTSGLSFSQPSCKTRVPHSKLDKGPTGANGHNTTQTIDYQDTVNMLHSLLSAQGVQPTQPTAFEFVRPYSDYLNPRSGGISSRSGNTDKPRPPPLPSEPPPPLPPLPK

Consider `CC(C)n1nnc2ccc3cnc(Nc4ccc(C(=O)N5CCC(O)CC5)cc4)nc3c21` [Example I-36, (4-Hydroxypiperidin-1-yl)(4-((1-isopropyl-1H-[1,2,3]triazolo[4,5-H]quinazolin-8-yl)amino)phenyl)metha none], for which the IC50 amounted to 0.8 nM on CDK2/cyclin E; 4 nM at CDK4/cyclin D1; 16 nM against CDK6/cyclin D3; 11 nM against CDK9/cyclin T1; 15 nM in [1]; 403 nM in assay [2]. Further, the IC50 amounted to 167 nM in assay [3], 80 nM in [4], 28 nM in assay [5] and 140 nM in assay [6].
On to `CC(C)n1nnc2ccc3cnc(Nc4ccc(C(=O)N5CCC(F)(F)CC5)cc4)nc3c21` [Example I-37, (4,4-Difluoropiperidin-1-yl)(4-((1-isopropyl-1H-[1,2,3]triazolo[4,5-H]quinazolin-8-yl)amino)phenyl)metha none], for which the IC50 at CDK2/cyclin E turned out to be 0.8 nM; on CDK4/cyclin D1, 3 nM; at CDK6/cyclin D3 it was 11 nM; on CDK9/cyclin T1, 10 nM; in assay [1] it was 20 nM; in assay [2] it was 832 nM. For the same compound, the IC50 is 239 nM in [3], 136 nM in [4], 58 nM in assay [5] and 372 nM in [6].
